Laboratory results: the NIST ThermoML archive (doi:10.1021/acs.jced.7b00344)

Assay: xn = mol fraction of the nth substance listed
Conditions: 101.3 kPa, Liquid; for viscosity: Capillary tube (Ostwald / Ubbelohde) method; for mass density: Pycnometric method

CC(=O)CCCCl [1-chloro-4-pentanone] + CC(=O)C1CC1
Conditions	mass density, 303.15 K [kg/m3]	mass density, 313.15 K [kg/m3]	mass density, 323.15 K [kg/m3]	mass density, 333.15 K [kg/m3]	viscosity, 303.15 K [mPa·s]	viscosity, 313.15 K [mPa·s]	viscosity, 323.15 K [mPa·s]	viscosity, 333.15 K [mPa·s]
x2 = 0	1051.3	1041.1	1031.2	1020.8	1.582	1.318	1.078	0.9667
x2 = 0.0998	1039.1	1029.1	1019.4	1009.3	1.427	1.21	1.03	0.8933
x2 = 0.2009	1026.1	1016.3	1006.7	996.8	1.223	1.043	0.9043	0.7927
x2 = 0.3004	1012.5	1002.9	993.4	983.6	1.135	0.9766	0.8507	0.7484
x2 = 0.4002	998	988.5	979.1	969.5	1.07	0.9252	0.8063	0.7131
x2 = 0.4999	982.8	973.3	963.9	954.4	0.955	0.8296	0.7322	0.6517
x2 = 0.5999	966.5	957.1	947.7	938.3	0.8757	0.7715	0.6787	0.6086
x2 = 0.6999	948.9	939.7	930.4	921.1	0.839	0.7366	0.649	0.5818
x2 = 0.7999	930.2	921	911.7	902.6	0.7363	0.6493	0.5783	0.5207
x2 = 0.8999	910.5	901.1	891.6	882.4	0.7027	0.6216	0.5513	0.4968

CC(=O)C1CCOC1=O (stereo not given) [2-acetylbutyrolactone] + CC(=O)C1CC1
Conditions	mass density, 303.15 K [kg/m3]	mass density, 313.15 K [kg/m3]	mass density, 323.15 K [kg/m3]	mass density, 333.15 K [kg/m3]	viscosity, 303.15 K [mPa·s]	viscosity, 313.15 K [mPa·s]	viscosity, 323.15 K [mPa·s]	viscosity, 333.15 K [mPa·s]
x2 = 0	1185.7	1178.3	1168.9	1159.4	3.794	3.424	3.067	2.719
x2 = 0.0998	1161.9	1154.3	1144.9	1135.6	3.195	2.889	2.609	2.33
x2 = 0.2009	1136.2	1128.5	1119.1	1109.7	2.633	2.369	2.118	1.892
x2 = 0.3004	1109.7	1101.8	1092.3	1082.9	2.164	1.945	1.748	1.571
x2 = 0.4002	1081.9	1073.7	1064.2	1054.8	1.786	1.599	1.415	1.278
x2 = 0.4999	1052.8	1044.3	1034.8	1025.4	1.452	1.306	1.154	1.025
x2 = 0.5999	1022.5	1013.8	1004.2	994.8	1.198	1.054	0.9344	0.8398
x2 = 0.6999	991.1	982.1	972.4	963.1	0.9813	0.8642	0.778	0.6958
x2 = 0.7999	958.3	949.2	939.6	930.2	0.783	0.6912	0.639	0.5704
x2 = 0.8999	924.5	915.5	905.9	896.5	0.6546	0.5854	0.5436	0.4933
